Measured values as given in US20190254984A1, “COMPOSITION AND FOOD OR DRINK” (Advanced Medical Frontier Co., Ltd., priority 2012, published 2019).

How the values were obtained:
[1] = system: ob/ob mice; assay: Example 5: body weight of genetically obese mice over four weeks; format: in vivo; settings: Orz everyday for four weeks, even at 320 μg/g of body weight/day; n=14; FIG. 9B
Method: (§1) Ob/ob mice were raised at 24° C. under a light/dark cycle of 12 hours/12 hours. The mice were raised in conditions where they were able to freely take feed and water. The body weight of mice was measured every week.
(§2) γ-oryzanol incorporated with PLGA particles was dissolved in distilled water (hereinafter referred to as “Nano Orz”) and administered to the mice using a probe at a dose of 0.3, 1.3, or 5 μg/g of body weight per day for two days every two weeks. As a solution of γ-oryzanol which was not enclosed in the PLGA particle, γ-oryzanol (manufactured by Wako Pure Chemical Industries, Ltd.) was dissolved in a 0.5% methylcellulose solution (hereinafter referred to as “Orz”). Orz was administered to the stomach using a probe everyday for four weeks (5 or 320 μg/g of body weight/day).
(§3) Data were expressed as mean±standard error (s.e.m). One-way analysis of variance, repeated measures analysis of variance, and multiple comparisons following repeated measures analysis of variance (Bonferroni/Dunn method) were employed as appropriate. For analysis of difference between two groups, Student's t-test was employed. Difference was considered to be significant with P<0.05.

[2] = system: ob/ob mice; assay: Example 5: glucose tolerance test; format: in vivo; settings: Orz even at 320 μg/g of body weight/day; n=14; FIG. 11C, 11D
Method: as §2
(§4) Whole blood was collected from the tail vein of mice; and blood glucose was measured using a simple blood glucose meter. A blood sample was further collected from the network of the retro orbital vein. For a glucose tolerance test, the mice were fasted for 18 hours and thereafter administered with glucose at 0.75 g/kg of body weight. The blood glucose level was measured at the predetermined time. In addition, for an insulin tolerance test, insulin (0.5 unit/kg of body weight; manufactured by Eli Lilly) was intraperitoneally injected to the mice that had fasted for four hours. The concentration of triglycerides in the plasma was determined by Triglyceride E-Test Wako.
(§5) Data were expressed as mean±standard error (s.e.m). […]

[3] = system: ob/ob mice; assay: Example 5: plasma triglyceride; format: in vivo; settings: Orz at the same amount as Nano Orz; n=6; FIG. 13
Method: as §2, §4, §5

[4] = system: ob/ob mice; assay: Example 5: blood glucose level of genetically obese mice over four weeks; format: in vivo; settings: Orz even at 320 μg/g of body weight/day, n=14, FIG. 10B
Method: as §1, §2
as §4, with “In addition, for an insulin tolerance test, insulin (0.5 unit/kg of body weight; manufactured by Eli Lilly) was intraperitoneally injected to the mice that had fasted for four hours.” left out
as §5

[5] = system: obese mice; settings: oral γ-oryzanol 320 mg/kg; cited from earlier work
[6] = system: ob/ob mice; assay: Example 2: blood glucose level of ob/ob mice; format: in vivo; settings: γ-oryzanol alone, oral daily 5 and 320 μg/g of body weight/day; FIG. 2B
Method: (§6) First, the γ-oryzanol-incorporating particle was suspended in distilled water at 5%, 1.25%, and 0.31% (w/v). As a control, γ-oryzanol was suspended in 0.5% (w/v) methylcellulose solution (manufactured by Wako Pure Chemical Industries, Ltd.) at 0.05% and 3.2% (0.5 and 32 mg/ml).
(§7) Subsequently, each of the γ-oryzanol-incorporating particle suspensions and the γ-oryzanol suspensions was orally administered to ob/ob mice (five weeks old, male, B6. Lepob/J mice (homozygote (Lepob/Lepob)), made by Charles River Laboratories Japan, Inc.) (n=6) using a probe. For the details, the γ-oryzanol-incorporating particle suspension at 0.3, 1.3, and 5 μg/g of body weight/14 days in terms of γ-oryzanol was administered to the mice for two days followed by a five-day rest period every two weeks; and observation was made for 14 days. The daily dose was 1.1, 4.4, and 17.5 μg/g of body weight/day, respectively. […]
(§8) One week and two weeks after the beginning of the administration, the body weight and blood glucose level of the mice were measured. […] In such a test, following to 18-hour fasting, glucose was orally administered at 0.75 g/kg using a probe; and the blood glucose level was measured from the time of administration to two hours thereafter.

[7] = system: ERdj4; assay: Example 5: ER stress marker gene expression in tissues (real time PCR), ERdj4; format: in vivo, mice; settings: Orz even at 320 μg/g of body weight/day
Method: as §2
(§9) The hypothalamus, the islets of Langerhans, the adipose tissue of the mesentery, the liver, the epididymal adipose tissue, and the subcutaneous adipose tissue were collected from the mice; and the expression level of ER stress marker genes (Chop, ERdj4, and Xbp1s), and inflammation marker genes (TNF-α and MCP-1) was quantified using a quantitative real time polymerase chain reaction. The islets of Langerhans was isolated from mice by digestion with collagenase (Liberase TL; manufactured by Roche Diagnostics K.K.) and purified using Histopaque (trademark) gradient (Histopaque 1077; manufactured by Sigma-Aldrich). […]
as §5

[8] = system: IL-8 secretion from TNF-α-stimulated intestinal epithelial cells (Caco-2); assay: Example 3: IL-8 secretion upon TNF-α stimulation of Caco-2 cells (ELISA); format: cell-based, human; settings: 24 h pretreatment with 1 μg/ml of γ-oryzanol; a decrease observed; compared with no and 0.1 μg/ml γ-oryzanol; FIG. 7A
Method: As for cells, Caco-2 (RCB0988, RIKEN, the Institute of Physical and Chemical Research) was used. Caco-2 was cultured in a […] culture dish until reaching semiconfluent. As for a medium, Dulbecco modified Eagle's Medium (DMEM, D5796, manufactured by Sigma-Aldrich) was used. To the medium, non-essential amino acids (M7145, manufactured by Sigma-Aldrich) and Penicillin/Streptomycin (hereinafter referred to as “PS”; manufactured by Gibco, Life Technologies Corporation Japan) were added.
Cells with 50 passages were detached with 0.25% trypsin/0.02% EDTA and seeded in a 24-well plate at a concentration of 2×10^5 cells/well. The cells were cultured in DMEM with 10% FBS (fetal bovine serum), 1% non-essential amino acids, and 1% PS for 14 days. The medium was changed every other day; and the cells were sufficiently differentiated to be used the experiment below.
The medium was removed 24 hours before stimulation with TNF-α; and the cells were washed with 1 ml of PBS per well twice. […]
The collected supernatant was subjected to ELISA (enzyme immunity measurement assay) to measure the amount of IL-8 in the supernatant. […] At the same time, the total amount of proteins in the supernatant was measured by using a bicinchoninic acid assay (Pierce BCA Protein Assay Kit, manufactured by Thermo Scientific). […]

[9] = system: ob/ob mice; assay: Example 5: insulin tolerance test; format: in vivo; settings: Orz even at 320 μg/g of body weight/day; n=14; FIG. 12C, 12D
Method: as §2, §4, §5

[10] = system: Chop; assay: Example 5: ER stress marker gene expression in tissues (real time PCR), Chop; format: in vivo, mice; settings: for expression level of Chop: hypothalamus, Orz even at 320 μg/g of body weight/day
Method: as §2
(§10) The hypothalamus, the islets of Langerhans, the adipose tissue of the mesentery, the liver, the epididymal adipose tissue, and the subcutaneous adipose tissue were collected from the mice; and the expression level of ER stress marker genes (Chop, ERdj4, and Xbp1s), and inflammation marker genes (TNF-α and MCP-1) was quantified using a quantitative real time polymerase chain reaction. The islets of Langerhans was isolated from mice by digestion with collagenase (Liberase TL; manufactured by Roche Diagnostics K.K.) and purified using Histopaque (trademark) gradient (Histopaque 1077; manufactured by Sigma-Aldrich).
(§11) Using TRIzol (registered trademark) RNA Isolation Reagents (manufactured by Life Technologies Corporation), total RNA was extracted from each of the tissues; and cDNA was synthesized using iScript (trademark) cDNA Synthesis Kit (manufactured by Bio-Rad Laboratories, Inc.). Next, quantitative real time PCR was carried out using StepOnePlus (trademark) Real-Time PCR System, Fast TaqMan Universal Master Mix, and Fast SYBR Green Master Mix (manufactured by Applied Biosystems). The level of mRNA was normalized with that of 18S rRNA.
as §3, with “Difference was considered to be significant with P<0.05.” left out

[11] = system: ob/ob mice; assay: Example 2: body weight of ob/ob mice after oral administration; format: in vivo; settings: γ-oryzanol alone, oral daily 5 and 320 μg/g of body weight/day; FIG. 1B
Method: The γ-oryzanol-incorporating particle prepared in Example 1 was orally administered to mice for evaluation.
as §6, §7, §8

[12] = system: ob/ob mice; assay: Example 2: oral glucose tolerance test in ob/ob mice; format: in vivo; settings: γ-oryzanol alone 5 and 320 μg/g of body weight/day; vs vehicle; FIG. 3C, 3D
Method: as §6, §7, §8

[13] = system: MCP-1; assay: Example 5: inflammation marker gene expression in adipose tissues (real time PCR), MCP-1; format: in vivo, mice; settings: Orz even at 320 μg/g of body weight/day, N=8
Method: as §2, §9, §5

[14] = system: TNF-α; assay: Example 5: inflammation marker gene expression in adipose tissues (real time PCR), TNF-α; format: in vivo, mice; settings: Orz even at 320 μg/g of body weight/day, N=8
Method: as §2, §9, §5

[15] = system: Xbp1s; assay: Example 5: ER stress marker gene expression in tissues (real time PCR), Xbp1s; format: in vivo, mice; settings: Orz even at 320 μg/g of body weight/day, N=8
Method: as §2, §10, §11
as §3, with “Difference was considered to be significant with P<0.05.” left out

## γ-oryzanol
[1]
  weight gain: no significant suppression
[2]
  glucose tolerance (glucose tolerance test, blood glucose and AUC): no improvement
[3]
  concentration of plasma triglyceride: not decreased
[4]
  blood glucose level: no significant change
[5]
  blood glucose level: decreased
  insulin secretion: promotion
  lipid absorption from the small intestine: inhibition
  taste for high fat diets: restriction
[6]
  blood glucose level: not observed
[7]; islets of Langerhans, N=8, FIG. 14C
  expression level of ERdj4: did not inhibit
[7]; liver, printed in the sentence on Chop (FIG. 15C)
  expression level of ERdj4: did not inhibit
[8]
  amount of IL-8 in the supernatant: no significant difference
[9]
  insulin tolerance (insulin tolerance test, blood glucose and AUC): no improvement
[10]; adipose tissue in the mesentery, Orz 320 μg/g of body weight/day, N=8, FIG. 15A
  expression of Chop: significantly inhibited
[10]; N=8, FIG. 14A
  expression level of Chop: did not inhibit
[10]; printed in the sentence on ERdj4 (FIG. 14B)
  expression level of Chop: did not inhibit
[11]
  weight gain: not observed
[12]
  blood glucose level in oral glucose tolerance test: comparable
[13]; epididymal adipose tissue, FIG. 16B
  expression level of MCP-1: did not inhibit
[13]; subcutaneous fatty tissue, FIG. 16D
  expression level of MCP-1: did not inhibit
[14]; epididymal adipose tissue, FIG. 16A
  expression level of TNF-α: did not inhibit
[14]; subcutaneous fatty tissue, FIG. 16C
  expression level of TNF-α: did not inhibit
[15]; adipose tissue in the mesentery, FIG. 15B
  expression level of Xbp1s: did not inhibit
[15]; islets of Langerhans, FIG. 14D
  expression level of Xbp1s: did not inhibit
[15]; liver, FIG. 15D
  expression level of Xbp1s: did not inhibit
